Laboratory results: patent US11286263B2, “Macrocyclic fluorine substituted indole derivatives” (The Broad Institute, Inc., priority 2017, dated 2022)
Structures can show the parent of a compound that is named as a salt. Where two headings read alike, the source gives them in different places.

Key:
MV-4-11 = assay: Antiproliferation assay MV-4-11 (Assay 7); assay type: cell-based; details: MV-4-11 cells, CellTiter-Glo, single determinations, read-out: IC50 Antiproli MV-4-11
Method: (§1) Assessment of the Anti-Proliferative Effect of Compounds in Different Cell Lines
(§2) The impact of compounds on the proliferation of different cell lines was assessed using the CellTiter-Glo® Luminescent Cell Viability reagent from Promega (G7573).
(§3) In parallel, cells were plated in a reference (day 0) plate for time zero determination.
(§4) Rim wells were excluded. The cells were incubated for 72 h hours in a humidified incubator at 37° C. The day 0 plate was measured by adding 30 μL/well of CTG solution (CellTiter-Glo® Luminescent Cell Viability reagent, Promega G7573) to time zero wells in the reference plate followed by a 10 minutes incubation and luminescence reading at 0.1 ms. using the PHERAstar FS microplate reader (BMG Labtech).
(§5) After 72 h incubation, the treated plates were measured in the same way as the day 0 plate mentioned above.

SUDHL5 [1] = assay: Induction of caspase-3/7 activity, SUDHL5 (Assay 4); assay type: cell-based; details: SUDHL5 cells
Method: (§6) Induction of Caspase-3/7 Activity upon Treatment of Cells with Selected Compounds
(§7) The BH3-domain of MCL-1 sequesters pro-apoptotic proteins, thereby inhibiting apoptosis. In contrast, MCL-1 inhibitors are expected to antagonize this effect leading to an increase in apoptosis, which can be determined by measuring the activity of caspase-3/7.
(§8) The activity of caspase-3/7 was determined in DLBCL (Diffuse large B-cell lymphoma) cell lines (SUDHL5 and SUDHL10) upon treatment with different compounds, using the Caspase-Glo® 3/7 reagent from Promega (G8092).
(§9) Rim wells were excluded. The cells were incubated for 3 h hours in a humidified incubator at 37° C.
(§10) For the evaluation of the results, the background measured with “medium-only” was subtracted from all other values. […] The Bella DRC Master Sheet was used to calculate EC50s, with fixed C0=1 and Cl=plateau/max induction for the reference compound.

A2780 = assay: Antiproliferation assay A2780 (Assay 7); assay type: cell-based; details: A2780 cells, CellTiter-Glo, single determinations, read-out: IC50 Antiproli A2780
Method: as §1, §2, §3, §4, §5

SUDHL5 [2] = assay: Antiproliferation assay SUDHL5 (Assay 7); assay type: cell-based; details: SUDHL5 cells, CellTiter-Glo, median, read-out: IC50 Antiproli SUDHL5 [M] (median)
Method: as §1, §2, §3, §4, §5

SUDHL5 [3] = assay: Induction of cytotoxicity, SUDHL5 (Assay 6); details: read-out: IC50 Cytotox SUDHL5 [M] (median), SUDHL5 cells, 5 h, CellTiter-Glo
MCL-1 = MCL-1 (Homo sapiens (Human), UniProt Q07820, K194A/K197A/R201A); assay: Protein-protein interaction assay MCL-1/Noxa BH3 peptide (MCL-1 assay), TR-FRET; assay type: binding; details: MCL-1/Noxa BH3 peptide TR-FRET; median
Method: Protein-Protein Interaction Assay: MCL-1/Noxa BH3 Peptide (MCL-1 Assay)
The dose-dependent inhibition by the compounds described in this invention of the interaction between MCL-1 and the BH3 domain of Noxa (both human) was determined using a steady state binding competition assay with time-resolved fluorescence energy transfer (TR-FRET) readout. For that purpose MCL-1 (amino acids 173-321, N-terminal fused to Maltose Binding Protein (MBP) SEQ ID 1)) and a synthetic Noxa BH3-derived peptide of sequence Biotin-PEG2-PEG2-PAELEVE-Nva-ATQLRRFGDKLNFRQKLL-amide (SEQ ID 2) served as protein receptor and tracer ligand respectively. The MBP-MCL-1 was purchased from Beryllium (Bedford, Mass., USA). The expression and purification of this protein construct has been described elsewhere (DOI:10.1371/journal.pone.0125010). The Noxa BH3-derived peptide can be obtained from e.g. Biosyntan (Berlin, Germany).
In the assay 11 different concentrations of each compound (0.1 nM, 0.33 nM, 1.1 nM, 3.8 nM, 13 nM, 44 nM, 0.15 μM, 0.51 μM, 1.7 μM, 5.9 μM and 20 μM) were typically measured as duplicates in the same microtiter plate. For that, 100-fold concentrated DMSO solutions were prepared by serial dilutions (1:3.4) of a 2 mM stock solution in a clear, 384-well microtiter plate (Greiner Bio-One, Frickenhausen, Germany). From there, 50 nl were transferred in a dark test plate (Greiner Bio-One, Frickenhausen, Germany). The assay was initiated by addition of 2 μl of a 2,5-fold concentrated MBP-MCL-1 solution (usually for a 1 nM end concentration in 5 μl reaction volume) in aqueous assay buffer [50 mM Tris/HCl pH 7, 100 mM sodium chloride (NaCl), 50 mM potassium fluoride (KF), 0.005% Tween-20, 2 mM DTT, 0.1% bovine gamma globulin (BGG)] to the compounds in the assay plate. This was followed by a 10-minute incubation step at 22° C. for pre-equilibration of the putative complex between MBP-MCL-1 and the compounds. After that, 3 μl of a 1.67-fold concentrated solution (in assay buffer) consisting of Noxa BH3-derived peptide (1 nM end concentration) and TR-FRET detection reagents [1.67 nM anti-MBP-Eu cryptate and 1.67 nM streptavidin-XL665 (both from Cisbio Bioassays, Codolet, France)], were added.
The mixture was incubated in the dark for one hour at 22° C. and then overnight at 4° C. The formation of MCL-1/Noxa complexes was determined by measuring the resonance energy transfer of the anti-MBP-Eu-cryptate antibody to the streptavidin-XL665 present in the reaction. For that purpose, the fluorescence emission at 620 nm and 665 nm after excitation at 330-350 nm was measured in a TR-FRET measuring instrument, for instance a Rubystar or a Pherastar (both from BMG Lab Technologies, Offenburg, Germany) or a Viewlux (Perkin-Elmer). The ratio of the emission at 665 nm and at 622 nm was used as indicator of the amount of MCL-1/NOXA complexes present.
The resulting data (ratio) were normalized, taking 0% inhibition as the mean value of control measurements (usually 32 data points) where all reagents were included. In this case 50 nl DMSO were used instead of compounds. A 100% inhibition corresponded to the mean value of control measurements (usually 32 data points) where all reagents except MCL-1 were included. IC50 values were determined by regression analysis based on a 4 parameter equation (minimum, maximum, IC50, Hill; Y=Max+(Min−Max)/(1+(X/IC50)^Hill) using the Screener Software (Genedata).

SUDHL10 [4] = assay: Induction of cytotoxicity, SUDHL10 (Assay 6); details: read-out: IC50 Cytotox SUDHL10 [M] (median), SUDHL10 cells, 5 h, CellTiter-Glo
Method: In principle, compounds that induce apoptosis will concomitantly induce cell cytotoxicity. Therefore, cytotoxicity assays were run in parallel in SUDHL5 and SUDHL10 cells.
The different cell lines were plated in culture medium (RPMI 1640 [GIBCO #22400-089] supplemented with 10% Fetal Bovine Serum) at a density of 3,300 cells in 30 μl/well in a sterile, solid black, flat bottom, polystyrene, TC-treated 384-well microplate (Corning #3571) using Multidrop Combi Reagent Dispenser. As a control, medium without cells was also added to the plate. Cells were incubated in a humidified incubator at 37° C. overnight. On the next day, the cells were treated with compounds (stock solution, 10 mM in DMSO) using the HP D300 Digital Dispenser in a concentration range of 3.3×10e-5 M (33 μM) to 5×10e-9 M (5 nM) in a single-dot curve with at least 16 dilutions and a DMSO concentration of 0.33%. Rim wells were excluded. The cells were incubated for 5 h hours in a humidified incubator at 37° C. After this incubation, 30 μl of CellTiter-Glo® Luminescent Cell Viability reagent (Promega, G7573) was added to each well using the Multidrop Combi Reagent Dispenser, followed by 15 min incubation on a shaker at room temperature. Finally, luminescence was read at 0.1 ms, with a gain of 3000 using the PHERAstar FS microplate reader (BMG Labtech).
The Bella DRC Master Sheet was used to calculate IC50s, with fixed CI=0 and C0=1.

SUDHL10 [5] = assay: Induction of caspase-3/7 activity, SUDHL10 (Assay 4); assay type: cell-based; details: SUDHL10 cells
Method: as §6, §7, §8, §9, §10

AMO-1 = assay: Antiproliferation assay AMO-1 (Assay 7); assay type: cell-based; details: AMO-1 cells, CellTiter-Glo, single determinations, read-out: IC50 Antiproli AMO-1
Method: as §1, §2, §3, §4, §5

[6] = Homo sapiens, SU-DHL-5, 3 h, Caspase-Glo 3/7, median
[7] = Homo sapiens, SU-DHL10, 3 h, Caspase-Glo 3/7, median

Chain of MCL-1 (Q07820 whole entry K194A/K197A/R201A, looked up): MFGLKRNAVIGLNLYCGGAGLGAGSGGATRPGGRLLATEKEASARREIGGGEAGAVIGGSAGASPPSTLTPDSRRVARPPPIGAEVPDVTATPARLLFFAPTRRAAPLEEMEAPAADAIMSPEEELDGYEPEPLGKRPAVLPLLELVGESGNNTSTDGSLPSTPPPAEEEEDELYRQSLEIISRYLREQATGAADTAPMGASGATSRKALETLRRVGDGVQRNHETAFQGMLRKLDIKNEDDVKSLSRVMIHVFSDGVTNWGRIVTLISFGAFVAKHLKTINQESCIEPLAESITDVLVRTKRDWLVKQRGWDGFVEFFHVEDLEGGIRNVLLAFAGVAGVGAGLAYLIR

| SMILES | IC50 (MV-4-11; Homo sapiens, MV4-11, 72 h) | EC50 (SUDHL5 [1]; [6]) | IC50 (A2780; Homo sapiens, A2780, 72 h) | IC50 (SUDHL5 [2]; Homo sapiens, SU-DHL-5, 72 h) | IC50 (SUDHL5 [3]; Homo sapiens, SU-DHL-5, 5 h) | IC50 (MCL-1) | IC50 (SUDHL10 [4]; Homo sapiens, SU-DHL10, 5 h) | EC50 (SUDHL10 [5]; [7]) | IC50 (AMO-1; 72 h) | IC50 (MV-4-11; 72 h) | EC50 (SUDHL5 [1]; 3 h, Caspase-Glo 3/7, median) | IC50 (SUDHL5 [2]; 72 h) | IC50 (SUDHL5 [3]) | IC50 (SUDHL10 [4]) | EC50 (SUDHL10 [5]; 3 h, Caspase-Glo 3/7, median) | IC50 (MV-4-11; 72 h, listed as 04) | IC50 (A2780; 72 h, listed as 04) | IC50 (AMO-1; Homo sapiens, AMO1, 72 h) |
| --- | --- | --- | --- | --- | --- | --- | --- | --- | --- | --- | --- | --- | --- | --- | --- | --- | --- | --- |
| Cc1c2c(nn1C)C[N+](C)(C)CCCCn1c(C(=O)O)c(CCCOc3cccc4ccccc34)c3ccc(F)c-2c31 [Example 50, 8-carboxy-4-fluoro-2,3,14,14-tetramethyl-7-[3-(1-naphthyloxy)propyl]-10,11,12,13,14,15-hexa-hydro-2H-pyrazolo[3′,4′:8,9][1,6]diazacycloundecino[10,11,1-hi]indol-14-ium trifluroacetate] | 13.4 µM | 20 µM | > 33 µM | 6.1e-06 M | 1.6e-05 M | 0.00084 µM | > 3.3e-05 M | > 33 µM |  |  |  |  |  |  |  |  |  |  |
| CCc1nn(C)c2c1-c1c(F)ccc3c(CCCOc4ccc(F)c5ccccc45)c(C(=O)O)n(c13)CCCCOC2 (single isomer, unassigned; enantiomer 2) [Example 43, 3-ethyl-4-fluoro-7-{3-[(4-fluoronaphthalen-1-yl)oxy]propyl}-1-methyl-1,10,11,12,13,15-hexahydropyrazolo[4′,3′:9,10][1,6]oxazacycloundecino[8,7,6-hi]indole-8-carboxylic acid (enantiomer 2)] |  |  |  |  |  | 0.11 µM |  |  | > 33 µM | 12.5 µM | > 33 µM | 1.5e-05 M | > 3.3e-05 M | > 3.3e-05 M | > 33 µM |  |  |  |
| Cc1c2c(nn1C)COCCCCn1c(C(=O)O)c(CCCOc3cccc4ccccc34)c3ccc(F)c-2c31 (single isomer, unassigned; enantiomer 2) [Example 4, 4-fluoro-2,3-dimethyl-7-[3-(naphthalen-1-yloxy)propyl]-2,10,11,12,13,15-hexahydropyrazolo-[4′,3′:9,10][1,6]oxazacycloundecino[8,7,6-hi]indole-8-carboxylic acid-N-ethylethanamine salt (enantiomer 2)] |  |  |  |  |  | 0.065 µM |  |  |  |  | > 33 µM | > 3.3e-05 M | > 3.3e-05 M |  |  | > 33 µM | > 33 µM |  |
| CCc1nn(C)c2c1-c1c(F)ccc3c(CCCOc4ccc(F)c5ccccc45)c(C(=O)O)n(c13)CCCCOC2 (racemic) [Example 41, (rac)-12-ethyl-13-fluoro-1-(3-((4-fluoronaphthalen-1-yl)oxy)propyl)-10-methyl-4,5,6,7,9,10-hexahydropyrazolo[4′,3′:9,10][1]oxa[6]azacycloundecino[8,7,6-hi]indole-2-carboxylic acid] | 11 µM | 2.2 µM |  | 2e-06 M | 3e-06 M | 0.002 µM | 7.1e-06 M | 14 µM | 12.8 µM | 15 µM |  |  |  |  |  |  |  | 15.2 µM |
| Cc1c2c(nn1C)COCCCCn1c(C(=O)O)c(CCCOc3ccc(F)c4ccccc34)c3ccc(F)c-2c31 (single isomer, unassigned; enantiomer 2) [Example 17, 4-fluoro-7-{3-[(4-fluoronaphthalen-1-yl)oxy]propyl}-2,3-dimethyl-2,10,11,12,13,15-hexahydro-pyrazolo[4′,3′:9,10][1,6]oxazacycloundecino[8,7,6-hi]indole-8-carboxylic acid (enantiomer 2)] |  |  |  |  |  | 0.06 µM |  |  | > 33 µM | 20.8 µM | > 33 µM | 1.1e-05 M | > 3.3e-05 M | > 3.3e-05 M | > 33 µM |  |  |  |
| CCc1c2c(nn1C)COCCCCn1c(C(=O)O)c(CCCOc3ccc(F)c4ccccc34)c3ccc(F)c-2c31 (single isomer, unassigned; enantiomer 2) [Example 28, 3-ethyl-4-fluoro-7-{3-[(4-fluoronaphthalen-1-yl)oxy]propyl}-2-methyl-2,10,11,12,13,15-hexahydropyrazolo[4′,3′:9,10][1,6]oxazacycloundecino[8,7,6-hi]indole-8-carboxylic acid-N-ethylethanamine salt (enantiomer 2)] |  |  |  |  |  | 0.065 µM |  |  | > 33 µM | 13.8 µM | > 33 µM | 1.2e-05 M | 1.8e-05 M | > 3.3e-05 M | > 33 µM |  |  |  |
